Assay results taken from patent US20240043435A1, “TYK-2 INHIBITOR” (BEIGENE, LTD., priority 2020, published 2024).

How the values were obtained:
[1] = target: T1, TYK2-JH2 (aa 575-869, in-house) protein (Homo sapiens, UniProt P29597); assay: TYK2-JH2 biochemical assay (HTRF probe displacement); format: binding; conditions: Biochemical assay; read-out: TYK2-JH2 IC50
T1 construct: TYK2-JH2 (aa 575-869, in-house) protein; made in house
How it was run: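 HTRF probe-displacement format: compound dilutions (10 points, 5-fold, from 500 uM in DMSO at 500×) were combined with 0.2 nM TYK2-JH2 protein for 0.5 h at room temperature in HEPES pH 7.5 buffer with MgCl2, BSA, DTT and Brij-35. Percent inhibition came from the 615/665 nm fluorescence ratio, fitted to a four-parameter logistic for IC50.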

[2] = tested on: JAK2, TYK2/p-STAT4 (Tyr693) activated by IL-12 in NK-92 cell line; assay: IL-12-JAK2, TYK2/p-STAT4 (Tyr693) inhibition IC50 cellular assay; format: cell-based; conditions: for Selectivity fold (TYK2/JAK2): Cellular assay, pSTAT5/GM-CSF IC50 vs pSTAT4/IL-12 IC50; for IC50: NK92, Cellular assay, read-out: pSTAT4/IL-12 IC50
From the text: Assay C: IL-12-JAK2, TYK2/p-STAT4 (Tyr693) Inhibition IC50 Cellular Assay
To evaluate the inhibition effect of compounds disclosed herein on JAK2, TYK2/p-STAT4 (Tyr693) activated by IL-12 in NK-92 cell line, NK-92 cells were collected and washed 3 times by DPBS and resuspended in MEM-α (GIBCO, Cat #12561056) with 10% FBS (Gibco, Cat #10099, Lot #1891605), without IL-2 (R&D systems, Cat #202-IL), starved overnight. Cells were collected and resuspended in 1640 medium (phenol red free, Gibco, Cat #11835-030) with 0.1% BSA, and 12.5 μl/5×10^4/well cell suspension were seeded to the 96-well plate (Corning, Cat #3799). Then cells were treated with compounds diluted in 0.2% DMSO 1640 medium, at 37° C., 1 h. Dilution is done according to the following protocol: (1) make 500× compounds solution in DMSO from 5 mM by 4-fold dilution, total 8 doses were included; (3) make 2× compounds solution in assay medium by transferring 0.5 μl serial 500× stock solution into 125 μl assay medium; (4) 15 μl of 2× serial solution is added to cells and incubate at 37° C. for 1 h, the final compound conc. is 10000, 2500, 625, 156.25, 39, 9.8, 2.4 and 0.61 nM, respectively. After 1 h, cells were treated with 2.5 μl medium containing IL-12 at 37° C. (R&D systems, Cat #219-IL-005, final conc. 40 ng/ml), 30 min. Following cells were lysed with 7.5 μl lysis buffer at RT, shaking on shaker for 1 h. 10 μL of cell lysate were transferred to a PE 384-well Proxiplate detection plate, and 5 μL of pre-mixed Alphascreen beads were added to each well. Covered the plate with a plate sealer, span 1000 rpm for 1 min, mix, Incubated overnight at room temperature. Read on BMG PheraStar with Alphascreen protocol. IC 50 values were calculated by fitting dependent data to the four-parameter logistic model using dotmatics software. The assay was performed by using AlphaLISA SureFire Ultra p-STAT4 (Tyr693) Assay Kit—High Volume (PE, Cat #ALSU-PST4-A-HV).

pSTAT5/GM-CSF = pSTAT5/GM-CSF cellular assay (JAK2 selectivity); format: cell-based; conditions: for Selectivity fold (TYK2/JAK2): pSTAT5/GM-CSF IC50 over pSTAT4/IL-12 IC50

T1 sequence (P29597 575-869): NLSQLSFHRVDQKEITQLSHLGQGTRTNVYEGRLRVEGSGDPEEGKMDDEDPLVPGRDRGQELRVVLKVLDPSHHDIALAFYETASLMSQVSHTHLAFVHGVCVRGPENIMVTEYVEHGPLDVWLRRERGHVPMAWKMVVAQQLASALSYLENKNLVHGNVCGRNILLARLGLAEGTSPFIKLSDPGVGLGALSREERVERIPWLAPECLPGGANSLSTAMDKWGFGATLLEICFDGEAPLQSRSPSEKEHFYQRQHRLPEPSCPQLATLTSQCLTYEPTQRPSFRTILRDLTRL

COc1ccc(-c2cnc(NC(C)=O)cc2Nc2cc(OCC3CC3)cc(S(C)(=O)=O)n2)nn1 [Example A25, N-(4-((4-(cyclopropylmethoxy)-6-(methylsulfonyl)pyridin-2-yl)amino)-5-(6-methoxypyridazin-3-yl)pyridin-2-yl)acetamide]
IC50 [1]: 0.027 nM | Selectivity fold (TYK2/JAK2) [2]: >16778 fold | IC50 [2]: 0.596 nM | IC50 (pSTAT5/GM-CSF): > 10000 nM

CC(=O)Nc1cc(Nc2cc(C)cc(S(C)(=O)=O)n2)c(-c2ccc(C(F)(F)F)cn2)cn1 [Example F1, N-(4′-((4-methyl-6-(methylsulfonyl)pyridin-2-yl)amino)-5-(trifluoromethyl)-[2,3′-bipyridin]-6′-yl)acetamide]
IC50 [1]: 0.046 nM | Selectivity fold (TYK2/JAK2) [2]: >8130 fold | IC50 [2]: 1.23 nM | IC50 (pSTAT5/GM-CSF): > 10000 nM

CC(=O)Nc1cc(Nc2cc(OC(C)C)cc(S(C)(=O)=O)n2)c(-c2cc3n(n2)CCOC3)cn1 [Example Q6, N-(5-(6,7-dihydro-4H-pyrazolo[5,1-c][1,4]oxazin-2-yl)-4-((4-isopropoxy-6-(methylsulfonyl)pyridin-2-yl)amino)pyridin-2-yl)acetamide]
IC50 [1]: 0.028 nM | IC50 [2]: 0.45 nM | IC50 (pSTAT5/GM-CSF): > 10000 nM | Selectivity fold (TYK2/JAK2) (pSTAT5/GM-CSF): >22222 fold

CC(=O)Nc1cc(Nc2cccc(S(C)(=O)=O)n2)c(-c2cccnn2)cn1 [Example A24, N-(4-((6-(methylsulfonyl)pyridin-2-yl)amino)-5-(pyridazin-3-yl)pyridin-2-yl)acetamide]
IC50 [1]: 0.027 nM | Selectivity fold (TYK2/JAK2) [2]: >5405 fold | IC50 [2]: 1.85 nM | IC50 (pSTAT5/GM-CSF): > 10000 nM

CC(=O)Nc1cc(Nc2cc(OC(F)(F)F)cc(S(C)(=O)=O)c2)c(-c2ccc(C(C)(C)O)cn2)cn1 [Example H18, N-(5-(2-hydroxypropan-2-yl)-4′-((3-(methylsulfonyl)-5-(trifluoromethoxy)phenyl)amino)-[2,3′-bipyridin]-6′-yl)acetamide]
IC50 [1]: 0.032 nM | Selectivity fold (TYK2/JAK2) [2]: >1805 fold | IC50 [2]: 5.54 nM | IC50 (pSTAT5/GM-CSF): > 10000 nM

CC(=O)Nc1cc(Nc2cccc(S(C)(=O)=O)n2)c(-c2ccn(C3CC3)n2)cn1 [Example M1, N-(5-(1-cyclopropyl-1H-pyrazol-3-yl)-4-((6-(methylsulfonyl)pyridin-2-yl)amino)pyridin-2-yl)acetamide]
IC50 [1]: 0.055 nM | IC50 [2]: 0.174 nM | IC50 (pSTAT5/GM-CSF): 2010 nM | Selectivity fold (TYK2/JAK2) (pSTAT5/GM-CSF): 11551 fold

CC(=O)Nc1cc(Nc2cc(O[C@H]3C[C@H](O)C3)cc(S(C)(=O)=O)c2)c(-c2ccn(C)n2)cn1 [Example J37, N-(4-((3-((trans)-3-hydroxycyclobutoxy)-5-(methylsulfonyl)phenyl)amino)-5-(1-methyl-1H-pyrazol-3-yl)pyridin-2-yl)acetamide]
IC50 [1]: 0.035 nM | IC50 [2]: 19.1 nM | IC50 (pSTAT5/GM-CSF): > 10000 nM | Selectivity fold (TYK2/JAK2) (pSTAT5/GM-CSF): >523 fold

CC(=O)Nc1cc(Nc2cc(C3CCOCC3)cc(S(C)(=O)=O)n2)c(-c2ccc(N3C[C@@H](C)O[C@@H](C)C3)cn2)cn1 [Example C21, N-(5-(cis-2,6-dimethylmorpholino)-4′-((6-(methylsulfonyl)-4-(tetrahydro-2H-pyran-4-yl)pyridin-2-yl)amino)-[2,3′-bipyridin]-6′-yl)acetamide]
IC50 [1]: 0.024 nM | Selectivity fold (TYK2/JAK2) [2]: >10050 fold | IC50 [2]: 0.995 nM | IC50 (pSTAT5/GM-CSF): > 10000 nM

CC(=O)Nc1cc(Nc2cc(OC(C)C)cc(S(C)(=O)=O)n2)c(-c2ccn(C)n2)cn1 [Example J2, N-(4-((4-isopropoxy-6-(methylsulfonyl)pyridin-2-yl)amino)-5-(1-methyl-1H-pyrazol-3-yl)pyridin-2-yl)acetamide]
IC50 [1]: 0.022 nM | IC50 [2]: 3 nM | IC50 (pSTAT5/GM-CSF): > 10000 nM | Selectivity fold (TYK2/JAK2) (pSTAT5/GM-CSF): >3333 fold

CC(=O)Nc1cc(Nc2cccc(S(C)(=O)=O)c2)c(-c2ccc(C(F)(F)F)cn2)cn1 [Example F2, N-(4′-((3-(methylsulfonyl)phenyl)amino)-5-(trifluoromethyl)-[2,3′-bipyridin]-6′-yl)acetamide]
IC50 [1]: 0.051 nM | Selectivity fold (TYK2/JAK2) [2]: >451 fold | IC50 [2]: 22.1 nM | IC50 (pSTAT5/GM-CSF): > 10000 nM
